“Also recorded” adds a separate entry of the source. Read-outs that look alike come from different tables or passages of the source.
What was measured:
[1] = system: Alternaria alternata; experiment: In vitro poisoned food technique against fungus (Ex. 20); assay type: cell-based; details: poisoned food technique, PDA medium, dose 1 ml/gm/lit., after seven days; for inhibition of growth at 1 mL or g/L: vs untreated control, read-out: % Inhibition of growth
[2] = system: Alternaria alternata; experiment: Alternaria leaf spot/blight on inoculated tomato plants (Ex. 28); assay type: in vivo; details: tomato plants, Alternaria alternata; after 7 days; dose 1 ml/gm/lit
[3] = system: tomato seedlings; experiment: Response of tomato plants, greenhouse growth (Ex. 30); assay type: in vivo; details: tomato seedlings, dose 1 ml/gm/lit; for Plant Height 5th Day / Stem Girth 5th Day / CCI 5th Day: 5th day after application; for Plant Height 10th Day / Stem Girth 10th Day / CCI 10th Day: 10th day after application; for Plant Height % Increase over pre on 10th Day / Stem Girth % Increase over pre on 10th Day / CCI % Increase over pre on 10th Day / Root Length (cm) 10th Day / Root Length % Increase over control: 10th day; for Root Length % Increase over control: vs water control
[4] = system: chili seedlings; experiment: Response of chili plants, greenhouse growth (Ex. 31); assay type: in vivo; details: chili seedlings, dose 1 ml/gm/lit; for CCI 5th Day / Plant Height (cm) 5th Day: 5th day after application; for CCI 10th Day / Plant Height (cm) 10th Day: 10th day after application; for CCI % Increase over pre on 10th Day / Plant Height % Increase over pre on 10th Day / Root Lenght (cm) 10th Day / Stem Girth % Increase over pre on 10th Day / Root Lenght % Increase over control: 10th day; for Root Lenght % Increase over control: vs water control
[5] = system: Aphid; details: Dose 1 ml/gm/lit.; for Total No. of dead insect at 48 Hrs.: 10 insects/treatment, 4 replications, cotton leaves
[6] = system: Mite; details: Dose 1 ml/gm/lit.; for Total No. of dead insect at 48 Hrs.: 10 insects/treatment, 4 replications, okra leaves
[7] = system: Mealy Bug; details: Mealy Bug on cotton leaves, dose 1 ml/gm/lit., 48 Hrs.; for Total No. of dead insect at 48 Hrs.: 10 insects/treatment, 4 replications; for % Corrected Mortality at 48 Hrs.: corrected for water control
[8] = system: Helicoverpa armigera; details: Helicoverpa armigera on okra fruits, dose 1 ml/gm/lit., 72 Hrs.; for Total No. of dead insect at 72 Hrs.: 10 insects/treatment, 4 replications; for % Corrected Mortality at 72 Hrs.: corrected for water control
[9] = system: Spodoptera litura; details: Spodoptera litura on castor leaves; dose 1 ml/gm/lit.; 10 insects/treatment; 72 hrs after application
[10] = system: Thrips; details: Thrips on cotton leaves; dose 1 ml/gm/lit.; 10 insects/treatment; 48 hrs after application
[11] = system: Aphid; details: Aphids on cotton plants, green house; dose 1 ml/gm/lit.; 10 insects/plant, 10 plants/treatment; 48 hrs
[12] = system: Mite; details: mite on okra plants, green house, dose 1 ml/gm/lit. spray; for % Mortality at 48 Hrs. / Total No. of dead insect at 48 Hrs.: 48 hrs after application; for % Corrected Mortality at 48 Hrs.: corrected for water control
[13] = system: Mealy Bug; details: mealy bug on cotton plants, green house, dose 1 ml/gm/lit. spray; for % Mortality at 48 Hrs. / Total No. of dead insect at 48 Hrs.: 48 hrs after application; for % Corrected Mortality at 48 Hrs.: corrected for water control
[14] = system: Helicoverpa armigera; details: Helicoverpa armigera 3rd instar on chickpea plants, dose 1 ml/gm/lit. spray; for % Mortality at 72 Hrs.: 72 hrs after application; for % Corrected Mortality at 72 Hrs.: corrected for water control
[15] = system: Spodoptera litura; details: Spodoptera litura 3rd instar on cabbage plants, dose 1 ml/gm/lit. spray; for % Mortality at 72 Hrs.: 72 hrs after application; for % Corrected Mortality at 72 Hrs.: corrected for water control
[16] = system: Thrips; details: thrips on cotton plants, greenhouse, dose 1 ml/gm/lit. spray; for % Corrected Mortality at 48 Hrs.: corrected for water control
[17] = cited from earlier work; for Phytotonic Effect: Table 13, effect on plants, descriptive
[18] = system: Spodoptera litura; experiment: whole plant or invertebrate; details: 72 h
[19] = system: Thrips; experiment: whole plant or invertebrate; details: in Gossypium hirsutum, 48 h
[20] = system: Aphid; experiment: whole plant or invertebrate; details: 48 h
[21] = read-out: % Corrected Mortality at 72 Hrs.
[22] = read-out: % Mortality at 72 Hrs.
[23] = read-out: % Corrected Mortality at 48 Hrs.
[24] = read-out: % Mortality at 48 Hrs.
[25] = Table 13, descriptive, no test described

For `CC1=CCC2CC1C2(C)C` (stereo not drawn) [Alpha-pinene], the “Mean colony Diameter (mm)” value [1] was 71.50 mm, the inhibition of growth at 1 mL or g/L [1] was 18.8% and the “% Disease reduction over Control” value [2] was 42.15%. The “Plant Height 5th Day” value [3] was 7.24 cm, the “Stem Girth 5th Day” value [3] was 2.01 mm and the “Plant Height 10th Day” value [3] was 7.74 cm. For the same compound, the “Stem Girth 10th Day” value [3] was 2.22 mm, the “Plant Height % Increase over pre on 10th Day” value (“Plant Height % Increase” below) [3] was 26.47% and the “Stem Girth % Increase over pre on 10th Day” value (shortened to “Stem Girth % Increase”) [3] was 55.24%. The “CCI 5th Day” value [3] was 13.65, the “CCI % Increase over pre on 10th Day” value [3] was 25.17% and the “Root Length (cm) 10th Day” value [3] was 4.30 cm. For the same compound, the “CCI 10th Day” value [3] was 14.32, the “Root Length % Increase over control” value [3] was 29.14% and the “CCI 5th Day” value [4] was 11.40. The “Plant Height (cm) 5th Day” value [4] was 6.35 cm, the “CCI % Increase over pre on 10th Day” value [4] was 36.59% and the “Plant Height % Increase” value [4] was 51.74%. The “Root Lenght (cm) 10th Day” value [4] was 3.23 cm, the “Stem Girth % Increase” value [4] was 41.80% and the “CCI 10th Day” value [4] was 12.58. For the same compound, the “Plant Height (cm) 10th Day” value [4] was 6.54 cm, the “Root Lenght % Increase over control” value [4] was 17.88% and the “Total No. of dead insect at 48 Hrs.” value [5] was 5.75. The “% Corrected Mortality at 48 Hrs.” value [5] was 51.43%, the “% Mortality at 48 Hrs.” value [5] was 57.50% and the “Total No. of dead insect at 48 Hrs.” value [6] was 4.00. For the same compound, the “% Corrected Mortality at 48 Hrs.” value ([6]; 48 hrs) was 35.14%, the “% Mortality at 48 Hrs.” value ([6]; 48 hrs) was 40.00% and the “Total No. of dead insect at 48 Hrs.” value [7] was 5.25. For the same compound, the “% Mortality at 48 Hrs.” value [7] was 52.50%, the “% Corrected Mortality at 48 Hrs.” value [7] was 50.00% and the “Total No. of dead insect at 72 Hrs.” value [8] was 7.00. The “% Mortality at 72 Hrs.” value [8] was 70.00%, the “% Corrected Mortality at 72 Hrs.” value [8] was 70.00% and the “Total No. of dead insect at 72 Hrs.” value [9] was 5.00. The “Total No. of dead insect at 48 Hrs.” value [10] was 4.25, the “Total No. of dead insect at 48 Hrs.” value [11] was 60.00 and the “% Mortality at 48 Hrs.” value [12] was 32.50%. The “Total No. of dead insect at 48 Hrs.” value [12] was 32.50, the “% Corrected Mortality at 48 Hrs.” value [12] was 28.95% and the “% Mortality at 48 Hrs.” value [13] was 60.00%. For the same compound, the “Total No. of dead insect at 48 Hrs.” value [13] was 60.00, the “% Corrected Mortality at 48 Hrs.” value [13] was 55.56% and the “% Mortality at 72 Hrs.” value [14] was 67.50%. For the same compound, the “% Corrected Mortality at 72 Hrs.” value [14] was 67.50%, the “% Mortality at 72 Hrs.” value [15] was 55.00% and the “% Corrected Mortality at 72 Hrs.” value [15] was 52.63%. The “Total No. of dead insect at 48 Hrs.” value ([16]; 48 hrs after application) was 42.50, the “% Corrected Mortality at 48 Hrs.” value [16] was 36.11% and the “Phytotonic Effect” value [17] was “Trigger plant; also recorded: Boost chlorophyll”. It also gave a mortality at 1 mL or g/L [18, 21] of 47.4%, a mortality at 1 mL or g/L [18, 22] of 50% and a mortality at 1 mL or g/L [19, 23] of 34.3%. It also gave a mortality at 1 mL or g/L [19, 24] of 42.5%, a mortality at 1 mL or g/L [20, 23] of 52.9% and a mortality at 1 mL or g/L [20, 24] of 60%.

With `CC12CCC(CC1=O)C2(C)C` (stereo not shown) [Camphor] the “Mean colony Diameter (mm)” value [1] was 60.00 mm, the inhibition of growth at 1 mL or g/L [1] was 31.8% and the “% Disease reduction over Control” value [2] was 46.28%. The “Plant Height 5th Day” value [3] was 6.34 cm, the “Stem Girth 5th Day” value [3] was 1.90 mm and the “Plant Height 10th Day” value [3] was 6.96 cm. For the same compound, the “Stem Girth 10th Day” value [3] was 2.06 mm, the “Plant Height % Increase” value [3] was 27.94% and the “Stem Girth % Increase” value [3] was 53.50%. The “CCI 5th Day” value [3] was 13.64, the “CCI % Increase over pre on 10th Day” value [3] was 26.67% and the “Root Length (cm) 10th Day” value [3] was 3.58 cm. For the same compound, the “CCI 10th Day” value [3] was 14.82, the “Root Length % Increase over control” value [3] was 7.76% and the “CCI 5th Day” value [4] was 11.80. For the same compound, the “Plant Height (cm) 5th Day” value [4] was 5.70 cm, the “CCI % Increase over pre on 10th Day” value [4] was 25.81% and the “Plant Height % Increase” value [4] was 56.20%. For the same compound, the “Root Lenght (cm) 10th Day” value [4] was 3.47 cm, the “Stem Girth % Increase” value [4] was 44.32% and the “CCI 10th Day” value [4] was 13.21. The “Plant Height (cm) 10th Day” value [4] was 6.30 cm, the “Root Lenght % Increase over control” value [4] was 26.68% and the “Total No. of dead insect at 48 Hrs.” value [5] was 5.75. The “% Corrected Mortality at 48 Hrs.” value [5] was 51.43%, the “% Mortality at 48 Hrs.” value [5] was 57.50% and the “Total No. of dead insect at 48 Hrs.” value [6] was 6.75. The “% Corrected Mortality at 48 Hrs.” value ([6]; 48 hrs) was 64.86%, the “Total No. of dead insect at 48 Hrs.” value [7] was 5.25 and the “% Mortality at 48 Hrs.” value [7] was 52.50%. The “% Corrected Mortality at 48 Hrs.” value [7] was 50.00%, the “Total No. of dead insect at 72 Hrs.” value [8] was 6.00 and the “% Mortality at 72 Hrs.” value [8] was 60.00%. For the same compound, the “% Corrected Mortality at 72 Hrs.” value [8] was 60.00%, the “Total No. of dead insect at 72 Hrs.” value [9] was 4.25 and the “Total No. of dead insect at 48 Hrs.” value [10] was 4.50. For the same compound, the “Total No. of dead insect at 48 Hrs.” value [11] was 60.00, the “% Mortality at 48 Hrs.” value [12] was 65.00% and the “Total No. of dead insect at 48 Hrs.” value [12] was 65.00. For the same compound, the “% Corrected Mortality at 48 Hrs.” value [12] was 63.16%, the “% Mortality at 48 Hrs.” value [13] was 67.50% and the “Total No. of dead insect at 48 Hrs.” value [13] was 67.50. The “% Corrected Mortality at 48 Hrs.” value [13] was 63.89%, the “% Mortality at 72 Hrs.” value [14] was 55.00% and the “% Corrected Mortality at 72 Hrs.” value [14] was 55.00%. The “% Mortality at 72 Hrs.” value [15] was 45.00%, the “% Corrected Mortality at 72 Hrs.” value [15] was 42.11% and the “% Mortality at 48 Hrs.” value ([16]; 48 hrs after application) was 42.50%. The “Total No. of dead insect at 48 Hrs.” value ([16]; 48 hrs after application) was 42.50, the “% Corrected Mortality at 48 Hrs.” value [16] was 36.11% and the “Acaricidal Activity - Mode of action” value [17, 25] was “Deteriorating respiratory”. For the same compound, the “Antifungal Activity - Mode of action” value [17, 25] was “Repel fungal infections”, the “Antioxidant Activity - Mode of action” value [17, 25] was “Free radical scavenging” and the “Bactericidal Activity - Mode of action” value [17, 25] was “Inhibit microbial growth,”. For the same compound, the “Insecticidal Activities - Mode of action” value [17, 25] was “Strong contact toxicity”, the “Nematicidal Activity - Mode of action” value [17, 25] was “Strong activity against” and the “Virucidal Activity - Mode of action” value [17, 25] was “Control the spread of viral”. For the same compound, the “Phytotonic Effect” value [17] was “Strong”, the mortality at 1 mL or g/L [18, 21] was 39.5% and the mortality at 1 mL or g/L [18, 22] was 42.5%. For the same compound, the mortality at 1 mL or g/L [19, 23] was 37.1%, the mortality at 1 mL or g/L [19, 24] was 45% and the mortality at 1 mL or g/L [20, 23] was 52.9%. For the same compound, the mortality at 1 mL or g/L [20, 24] was 60%.
